# Measured values reported in article PMC8810776, “Gut microbiome of the largest living rodent harbors unprecedented enzymatic systems to degrade plant polysaccharides” (Nature Communications, 2022).
# How the values were obtained:
# Assay in all cases: substrate saturation curve, initial velocities
# CapGH97 = tested on: T1, CapGH97; format: biochemical, Bacteroidaceae bacterium MAG57; conditions: pH 7.0, 35 °C, 70 mM McIlvaine buffer, 5 mM CaCl2
# T1 construct: recombinant in E. coli BL21, pET28a, N-terminal 6xHis-tag cleaved with trypsin; gene of cluster CC102
# Description: substrate saturation curve, initial velocities on CapGH97
# CapGH43_12 = tested on: T2, CapGH43_12; format: biochemical, Bacteroidaceae bacterium MAG57; conditions: pH 6.5, 35 °C, 70 mM McIlvaine buffer
# T2 construct: recombinant in E. coli BL21, pET28a, N-terminal 6xHis-tag cleaved with trypsin; gene of cluster CC102
# Description: substrate saturation curve, initial velocities on CapGH43_12
# CapGH173 = tested on: T3, CapGH173; format: biochemical, Bacteroidales bacterium MAG42; conditions: pH 7.5, 45 °C, 70 mM McIlvaine buffer
# T3 construct: recombinant in E. coli BL21, pET28a, N-terminal 6xHis-tag cleaved with trypsin
# Description: substrate saturation curve, initial velocities on CapGH173
# [1] = tested on: O=[N+]([O-])c1ccc(O[C@@H]2O[C@H](CO)[C@H](O)[C@H](O)[C@H]2O)cc1; format: biochemical, Bacteroides xylanisolvens; conditions: pH 7.5, 45 °C
# Description: substrate saturation curve, initial velocities on BXY_26070 (CBK67650)
compound,measurement,setting,value
"O=[N+]([O-])c1ccc(O[C@H]2O[C@H](CO)[C@H](O)[C@H](O)[C@H]2O)cc1 [pNP-α-D-Gal, p-nitrophenyl-α-D-galactopyranoside]",Km,CapGH97,7700 ± 610 µM
"O=[N+]([O-])c1ccc(O[C@@H]2O[C@@H](CO)[C@H](O)[C@H]2O)cc1 [pNP-α-L-AraF, p-nitrophenyl-α-L-arabinofuranoside]",Km,CapGH43_12,2740 ± 290 µM
"O=[N+]([O-])c1ccc(O[C@@H]2O[C@H](CO)[C@H](O)[C@H](O)[C@H]2O)cc1 [pNP-β-D-Gal, p-nitrophenyl-β-D-galactopyranoside]",Km,CapGH173,570 ± 50 µM
BXY_26070 (CBK67650) (Bacteroides xylanisolvens XB1A),Km,[1],1190 ± 350 µM
same,kcat,[1],29.9 ± 1.95 s⁻¹
same,kcat/Km,[1],25100 M⁻¹ s⁻¹
